The text below walks through data of patent US20110105554A1, “MEANS FOR TREATING MYOSIN-RELATED DISEASES” (KINARIS BIOMEDICALS GMBH, priority 2007, published 2011).

One assay has as its target T1, Dictyostelium myosin-2 (Dictyostelium discoideum, UniProt P08799, C312Y/S249N).
T1 construct: comprising amino acids 1-698, 1-765, and 1-839 respectively; made in house
As to the kind of experiment: Actin-activated ATPase activity (NADH-coupled assay), Dictyostelium myosin-2. It is filed as biochemical. The protocol: Based on the structure of the myosin-2 motor domain with bound PBP, we performed molecular modeling studies to elucidate the specificity of PBP-binding to myosins from different classes. […] To test the predictions from the modeling studies, we determined actin-activated ATPase activities in the presence of 0 to 150 μM PBP with rabbit skeletal myosin-2 heavy meromyosin (HMM), myosin-5a isolated from chicken brain, and recombinant Dictyostelium myosin class-1, 2 and 5 motor-domain constructs (FIG. 9a). […] The concentrations of PBP required for half-maximal inhibition of the different myosin motors was calculated from fitting the data to hyperbolae. […] To determine the extend to which PBP impairs the coupling between the actin- and nucleotide-binding sites of myosin, we measured the ATP turn-over rates of Dictyostelium myosin-2 and myosin-5b motor domain constructs over the range from 0 to 50 μM F-actin in the absence and presence of 25 μM PBP.
Values for the rate of maximum ATP turnover (kcat), the concentration of F-actin at which half-maximal activation is achieved (Kapp), and the apparent second order rate constant for actin binding (kcat/Kapp) were estimated from a fit of the data to a hyperbolic function. kcat/Kapp is a direct measure of the coupling efficiency between actin and nucleotide binding and can be determined from the initial slope at F-actin concentrations much smaller than Kapp. […] ATP turn-over rates of Dictyostelium myosin-2 (◯) and Dictyostelium myosin-5b (▪) at increasing F-actin concentrations in the absence (filled symbols) and presence (open symbols) of 25 μM pentabromopseudilin (FIG. 9b):
Protein preparation. Rabbit fast skeletal muscle heavy meromyosin (HMM) was prepared as described by Kron and Spudich^9. Motor domain constructs of myosin-1E, myosin-2, and myosin-5b from Dictyostelium discoideum comprising amino acids 1-698, 1-765, and 1-839 respectively, were prepared as described previouslyl^10-12. Myosin-5a heavy meromyosin from chicken brain was provided by Dr. T. Scholz (Hannover Medical School, Germany) and F-actin was prepared as described by Lehrer and Kerwar^13.
Steady-state kinetics. Basal and actin-activated Mg^2+-ATPase activities were measured with the NADH-coupled assay^19 in a buffer containing 25 mM HEPES, 25 mM KCl, and 4 mM MgCl2, 0.5 mM DTT at pH 7.0 in the presence of 1 mM ATP at 25° C. PBP was added to the reaction mixture in the absence of nucleotide and incubated for 20 minutes before the reaction was started by the addition of ATP. NADH oxidation was followed using the change in absorption at 340 nm in a Beckman DU-800 spectrophotometer.

The next assay addresses T2, DdMyosin-5b (Dictyostelium discoideum, UniProt P54697).
T2 construct: comprising amino acids 1-698, 1-765, and 1-839 respectively; made in house
As to the kind of experiment: mantATP binding to DdMyosin-5b (stopped-flow). The protocol: Effect of Pentabromopseudilin on ATP binding kinetics to DdMyosin-5b and acto-DdMyosin-5b. (FIG. 10a) Fluorescence transients obtained upon mixing 1 μM DdMyosin-5b with 10 μM mantATP in the absence and presence of 5 μM, 25 μM, 50 μM and 100 μM PBP. Mant-fluorescence was excited at 365 nm and detected after passing through a KV 389 nm cut-off filter. The fluorescent signal of mantATP binding to DdMyosin-5b in the absence of PBP follows a single exponential function (upper curve). The presence of increasing concentrations of PBP lead to reduced amplitudes of the fluorescent signals that are best fit by double exponentials. (FIG. 10b) Plot of the relative amplitudes of mantATP binding to Dd Myosin-5b at different PBP concentrations. […] (FIG. 10c) Fluorescence transients of the ATP induced dissociation of pyrene-acto-DdMyosin-5b in the absence (black curve) and presence (grey curve) of 50 μM PBP. (FIG. 10d) Quench-flow experiments of the ATP hydrolysis reaction upon mixing 5 μM M761 with 25 μM ATP in the absence (solid squares) and presence (open circles) of 50 μM PBP. […]
The binding and hydrolysis of ATP and mantATP, respectively by myosin head fragments were analyzed in terms of the seven-step model described by Bagshaw and coworkers (4). Transients in the presence of actin were analyzed according to the mechanisms described in references 5 and 6.

A further assay addresses myosin-1E (Dictyostelium discoideum, UniProt Q03479). In words: In vitro motility assay (actin filament sliding), myosin-1E. The settings on record: data not shown. It is filed as biochemical. The protocol:
The extent and order of isoform-specific differences in the potency of the inhibitor were additionally confirmed by the results of in vitro motility assays). […] (FIG. 11a) Myosin-5a moves actin filaments with an average velocity of 0.6 μm/s±0.05 (dark bars); addition of 10 μM PBP into the same flow cell lead to a 46-fold reduction of the average sliding velocity to 0.013 μm/s±0.002 (light grey bars).
Direct functional Assays. Actin-sliding motility was performed at 25° C. using an Olympus IX81 inverted fluorescence microscope. Experimental flow cells were constructed using bovine serum albumin (0.5 mg/ml in assay buffer)-coated glass slides and nitrocellulose-coated coverslips. Myosins were actin affinity-purified immediately before use, to remove rigor heads^20. Sliding movement was started by adding assay buffer containing 4 mM ATP, 10 mM DTT, 0.5 mg/ml bovine serum albumin, anti-fade solution, and 0.5% methylcellulose to the flow cell. Average sliding velocity was determined from the Gaussian distribution of automatically tracked actin filaments using DiaTrack 3.0 and Origin 7.0.

T1 sequence (P08799 1-765 S249N/C312Y): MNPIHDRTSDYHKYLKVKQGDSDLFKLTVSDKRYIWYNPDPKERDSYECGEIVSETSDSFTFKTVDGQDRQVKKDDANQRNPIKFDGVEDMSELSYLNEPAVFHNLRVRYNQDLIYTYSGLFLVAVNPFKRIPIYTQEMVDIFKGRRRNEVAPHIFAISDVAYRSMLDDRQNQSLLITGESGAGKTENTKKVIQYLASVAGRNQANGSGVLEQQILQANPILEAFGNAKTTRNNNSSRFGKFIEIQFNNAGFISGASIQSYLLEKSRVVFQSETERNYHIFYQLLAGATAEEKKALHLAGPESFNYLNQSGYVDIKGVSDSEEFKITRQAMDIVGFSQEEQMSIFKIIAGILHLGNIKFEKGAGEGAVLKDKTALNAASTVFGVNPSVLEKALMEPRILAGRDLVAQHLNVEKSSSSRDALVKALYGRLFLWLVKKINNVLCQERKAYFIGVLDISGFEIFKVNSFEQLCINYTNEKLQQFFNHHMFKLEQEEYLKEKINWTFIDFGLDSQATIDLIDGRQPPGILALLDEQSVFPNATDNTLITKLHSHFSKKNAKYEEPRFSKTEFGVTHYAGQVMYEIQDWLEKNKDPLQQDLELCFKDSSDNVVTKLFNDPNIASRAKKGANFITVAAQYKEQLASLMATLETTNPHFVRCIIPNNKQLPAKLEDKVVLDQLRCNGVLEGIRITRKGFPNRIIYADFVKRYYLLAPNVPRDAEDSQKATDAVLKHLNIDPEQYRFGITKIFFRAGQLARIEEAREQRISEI
myosin-1E, sequence (Q03479 whole entry, canonical isoform): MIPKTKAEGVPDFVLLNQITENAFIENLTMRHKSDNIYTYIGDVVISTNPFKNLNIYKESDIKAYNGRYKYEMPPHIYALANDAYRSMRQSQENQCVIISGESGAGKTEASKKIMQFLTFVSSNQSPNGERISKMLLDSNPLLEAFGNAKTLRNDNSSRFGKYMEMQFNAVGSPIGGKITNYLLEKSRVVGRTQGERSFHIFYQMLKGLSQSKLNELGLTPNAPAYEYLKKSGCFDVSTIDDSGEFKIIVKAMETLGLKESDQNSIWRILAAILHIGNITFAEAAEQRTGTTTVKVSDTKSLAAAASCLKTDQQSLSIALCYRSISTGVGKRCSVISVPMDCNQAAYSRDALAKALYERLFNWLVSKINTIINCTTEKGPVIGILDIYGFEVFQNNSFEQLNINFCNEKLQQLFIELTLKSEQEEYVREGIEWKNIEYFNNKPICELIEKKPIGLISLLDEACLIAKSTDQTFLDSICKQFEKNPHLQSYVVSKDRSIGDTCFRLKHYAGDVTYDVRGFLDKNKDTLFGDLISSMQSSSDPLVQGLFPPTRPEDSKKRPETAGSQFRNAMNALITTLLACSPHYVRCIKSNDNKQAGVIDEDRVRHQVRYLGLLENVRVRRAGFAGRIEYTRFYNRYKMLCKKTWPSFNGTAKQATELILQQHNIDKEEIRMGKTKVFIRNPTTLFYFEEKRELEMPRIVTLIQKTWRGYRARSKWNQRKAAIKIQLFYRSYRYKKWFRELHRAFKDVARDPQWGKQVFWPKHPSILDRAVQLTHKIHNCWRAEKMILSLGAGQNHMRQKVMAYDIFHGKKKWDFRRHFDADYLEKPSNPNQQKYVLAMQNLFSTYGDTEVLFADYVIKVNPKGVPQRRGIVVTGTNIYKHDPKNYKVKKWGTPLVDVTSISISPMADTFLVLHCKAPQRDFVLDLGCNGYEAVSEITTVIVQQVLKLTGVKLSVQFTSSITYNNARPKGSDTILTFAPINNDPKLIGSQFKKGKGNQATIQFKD
T2 sequence (P54697 1-839): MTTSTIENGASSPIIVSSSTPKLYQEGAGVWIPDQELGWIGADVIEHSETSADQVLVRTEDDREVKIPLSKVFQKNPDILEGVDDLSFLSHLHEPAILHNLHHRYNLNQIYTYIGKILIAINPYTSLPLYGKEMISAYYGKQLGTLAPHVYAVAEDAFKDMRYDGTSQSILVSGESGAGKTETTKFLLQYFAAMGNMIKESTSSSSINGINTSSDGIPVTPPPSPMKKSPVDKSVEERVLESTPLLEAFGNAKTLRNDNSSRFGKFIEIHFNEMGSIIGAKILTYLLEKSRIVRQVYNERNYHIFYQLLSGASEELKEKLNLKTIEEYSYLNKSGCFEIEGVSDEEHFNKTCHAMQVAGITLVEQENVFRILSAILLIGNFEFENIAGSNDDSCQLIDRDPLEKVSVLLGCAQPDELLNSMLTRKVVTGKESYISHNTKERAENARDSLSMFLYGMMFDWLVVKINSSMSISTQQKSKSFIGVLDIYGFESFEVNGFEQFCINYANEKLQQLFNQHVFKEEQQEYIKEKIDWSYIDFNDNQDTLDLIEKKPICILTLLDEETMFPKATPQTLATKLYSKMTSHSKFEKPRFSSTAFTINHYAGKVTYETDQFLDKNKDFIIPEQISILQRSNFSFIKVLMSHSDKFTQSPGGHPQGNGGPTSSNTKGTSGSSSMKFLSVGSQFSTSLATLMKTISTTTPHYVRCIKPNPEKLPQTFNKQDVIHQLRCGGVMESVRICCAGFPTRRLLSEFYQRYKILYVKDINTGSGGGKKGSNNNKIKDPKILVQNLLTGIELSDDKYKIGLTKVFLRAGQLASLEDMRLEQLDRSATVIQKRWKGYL

In the case of `Oc1c(Br)cc(Br)cc1-c1[nH]c(Br)c(Br)c1Br` [KIN-43], on Dictyostelium myosin-2, the Ki came out at 24 µM. Further, the “fold reduction in coupling (kcat/Kapp)” value at Dictyostelium myosin-2 (25 μM PBP) turned out to be 3.7 fold. Further, the “kcat/Kapp (apparent second order rate constant for actin binding)” value at Dictyostelium myosin-2 (25 μM PBP, 0 to 50 μM F-actin, 0.037 without) was found to be 10000 M⁻¹ s⁻¹. In addition, at Dictyostelium myosin-2 (>100 μM PBP, 0.7 s^−1 without), the “ATPase activity at 30 μM F-actin in the presence of inhibitor” value is 0.02 s⁻¹. Further, at DdMyosin-5b, the affinity, expressed as Kd, was 21 ± 2 µM. Moreover, on myosin-1E, the “inhibition of actin filament sliding” value is recorded as “No significant inhibition”.

One may read the Ki as a measure of affinity in units of concentration, obtained from inhibition or displacement. Low values mean higher affinity, high ones lower affinity. In general, Kd refers to the free concentration of one partner at which half of the binding sites on the other are occupied at equilibrium, for simple one-to-one binding.
